The text below walks through data of patent publication US12071436B2, “Anti-parasitic compounds and uses thereof” (Memorial Sloan-Kettering Cancer Center, priority 2016, dated 2024).

Data set [1] in a line: Plasma protein binding by equilibrium dialysis. It counts as in vitro ADME. As to conditions: mouse, 37° C. As for the experimental part:
To evaluate the plasma protein binding of selected compounds, equilibrium dialysis was used. All samples of the selected compounds were tested in triplicate using the RED Rapid Equilibrium Dialysis Device (Thermo Scientific). The initial drug concentration in the plasma chamber was 5 μM and phosphate buffered saline was added to the receiver chamber. The plate was covered and allowed to shake in a 37° C. incubator for 6 hours. 25 μl was sampled from the plasma and PBS chambers which were then diluted with either blank PBS or plasma to achieve a 1:1 ratio or plasma:PBS for all samples. The concentration of drug in the plasma and PBS chambers were determined by LC-MS/MS. The fraction bound was calculated as ([plasma]−[PBS])/[plasma].

A further data set in a line: Plasma stability. It counts as in vitro ADME. The settings on record: C57BL/6; 10 μM in undiluted mouse plasma, 37° C., out to four hours; read-out: plasma stability (t1/2, mouse). On the procedure:
To evaluate the plasma stability of selected compounds, 10 μM of each selected compound was incubated with undiluted plasma. Plasma was freshly obtained from C57BBl\6 mice drawn in the vivarium and used immediately. Plasma was brought to 37° C. within a 96-well plate and then the compound is introduced via a DMSO stock solution. The sample was continually shaken at 37° C. and aliquots are removed at multiple time points out to four hours. Aliquots were added to acetonitrile (5× v:v) to stop any enzymatic activity and held on ice. At the end of the assay, the samples were centrifuged through a Millipore Multiscreen Solvinter 0.45 micron low binding PTFE hydrophilic filter plate and analyzed by LC-MS/MS. Data was log transformed and represented as half-life.

Another data set relates to HepG2. In words: Cytotoxicity screening in HepG2 (CellTiter Glo, fluorescence microscopy). It counts as cell-based. As to conditions: Homo sapiens, 48 hours. On the procedure:
(§1) To evaluate the cytotoxicity of selected compounds, cell viability assays (CellTiter Glo) were conducted. Each compound (compound 21 or compound 37) was plated in triplicate starting at their respective stock concentration. They were serially diluted column-wise for ten 3× dilutions using DMSO as the diluent. Staurosporine was used as positive control for DRC (dose response curve), and was plated starting at 1.25 mM. This plate was used as a source plate to make the assay plates by transferring 0.1 μl into 25 μl assay volume to reach the right working concentration for each compound. HepG2 and MRC5 were plated at a density of 1500 cells/25 μl in well in the assay plate and allowed to settle overnight. 0.1 μL of compounds was then transferred from the source plate, into the cell assay plates. The cells were left to incubate with the compounds for 48 hours, after which, 25 μL of Promega Cell Titer-Glo was added to each well, and allowed to incubate at room temperature with shaking for 20 minutes. RLU's (Relative Light Units) for each well were then recorded on a BioTek Synergy NEO. Fluorescence microscopy was also used to evaluate the cytotoxicity of selected compounds. Cells were plated at a density of 1500 cells/25 μl in well in a 384 wells plate the day before incubation with the drugs. The following day, 0.1 μl of the source plate are added to the assay plate. Then, 25 μl of a fluorophores mixture containing Hoechst 33342, Syto17 diluted in Eagle's Minimum Essential Medium (EMEM) was added to each well. Plates are read after 48 hours of incubation in the ImageXpress instrument (Molecular Devices) using the appropriate filters.
Background: Cellular ATP, detected with luciferase, serves as a proxy for viable cell number.

Data set [2] can be described thus: Plasma pharmacokinetics in female BALB/c mice (ip and po). It counts as in vivo, mouse. As to conditions: 50 mg/kg; for bioavailability / AUC / Cmax / half-life: female, BALB/c, mice; for bioavailability / AUC / Cmax / half-life / Tmax: mouse, plasma; for bioavailability: oral, read-out: Relative Bioavailability, Frel (po/ip); for Tmax / plasma concentrations quantifiable till: female BALB/c mice. As for the experimental part: To evaluate the plasma pharmacokinetics of selected compounds, a group of eighteen female mice were administered divided into two groups; Group 1 (intraperitoneal (i.p.)) and Group 2 (oral administration (p.o.)) with compound 21 or compound 37 solution formulation at a dose of 50 mg/kg by both the routes in 5% NMP, 5% Solutol and 90% Normal saline. Blood samples (approximately […]) were collected from retro orbital plexus of each mouse under light isoflurane anesthesia such that the samples were obtained at 0.083, 0.25, 0.5, 1, 2, 4, 8, 12 and 24 hours (i.p.); and pre-dose, 0.25, 0.5, 1, 2, 4, 8, 12 and 24 hour (p.o.). The blood samples were collected from a set of three mice at each time point in labeled micro centrifuge tube containing K2EDTA as anticoagulant. Plasma samples were separated by centrifugation at 4000 rpm for 10 min and stored below −70° C. until bioanalysis. After collection of blood sample, animals were humanely euthanized by carbon dioxide asphyxiation to collect liver and heart from Group 1 and Group 2 at 1, 8 and 24 hours. The collected tissues were rinsed in PBS and were homogenized with cold phosphate buffer saline (pH 7.4) of nine times the weight of liver and two times the weight of heart tissue and stored below −70° C. until bio-analysis. Total volume was ten and three times the tissue weights of liver and heart, respectively. All samples were processed for analysis by protein precipitation using acetonitrile and analyzed with fit-for-purpose LC-MS/MS method (LLOQ: 1.01 ng/mL for plasma; 20.20 ng/g for liver and 6.06 ng/g for heart tissue). […] Exemplary results for compounds 21 (2015-FoleyC-021) and 37 (2015-FoleyC-037) are shown above in Table 2.

Data set [3] relates to Trypanosoma cruzi parasites. Briefly: Trypanosoma cruzi in vitro IC50 (structure-activity analyses). It counts as cell-based. The settings on record: infection with Trypanosoma cruzi parasites for 72 hours and treatment with the compound for 72 hours. As for the experimental part:
Select compounds described herein were evaluated for structure-activity analyses in vitro.

The nature of data set [4]: Hepatic microsomal stability, 1 mg/mL hepatic microsomes. It counts as in vitro ADME. As to conditions: C57BL/6, mouse, liver microsomes, pH 7.4, 1 μM compound, NADPH, read-out: microsomal stability (t1/2, mouse): 1 mg/mL hepatic microsomes. As for the experimental part:
To evaluate the hepatic microsomal stability of selected compounds, 1 μM of each selected compound was incubated with 1 mg/mL hepatic microsomes in 100 mM KPi, pH 7.4. The microsomes were obtained from C57BL/6 mice. The reaction was initiated by adding NADPH (1 mM final concentration). Aliquots were removed at 0, 5, 10, 20, 40, and 60 minutes and added to acetonitrile (5× v:v) to stop the reaction and precipitate the protein. NADPH dependence of the reaction is evaluated with —NADPH samples. At the end of the assay, the samples were centrifuged through a Millipore Multiscreen Solvinter 0.45 micron low binding PTFE hydrophilic filter plate and analyzed by LC-MS/MS. Data was log transformed and represented as half-life.

Data set [5] can be described thus: Cytotoxicity screening in MRC5 (CellTiter Glo, fluorescence microscopy). The settings on record: human, MRC5 cells. It counts as cell-based. On the procedure:
as §1

A short description of another data set: Cytotoxicity (Table 1). It counts as cell-based.
Where [6] appears, read: read-out: HepG2 IC50, Cell Count.
Where [7] appears, read: read-out: HepG2 IC50, Cellular ATP.
The mark [8] stands for this setting: read-out: HepG2 IC50, Membrane Integrity.
Setting [9] is: ip, read-out: PK (ip, 50 mg/kg) Area under the curve (AUC).
The mark [10] stands for this setting: ip, read-out: PK (ip, 50 mg/kg) Cmax.
The mark [11] stands for this setting: ip, read-out: PK (ip, 50 mg/kg) t1/2 (converted).
Where [12] appears, read: po, read-out: PK (po, 50 mg/kg) AUC.
[13] abbreviates: po, read-out: PK (po, 50 mg/kg) Cmax.
[14] abbreviates: po, read-out: PK (po, 50 mg/kg) t1/2 (converted).
Where [15] appears, read: ip, single intraperitoneal dose.
[16] abbreviates: read-out: MRC5 IC50, Cell Count.
Setting [17] is: read-out: MRC5 IC50, Cellular ATP.
Where [18] appears, read: read-out: MRC5 IC50, Membrane Integrity.

SMILES strings stand for the structures. Like-named read-outs stand apart in the source and are kept apart here.

One may read the fraction unbound as free concentration divided by total concentration. Read a low fraction unbound as little free substance. Broadly, the IC50 is the concentration that gives 50% inhibition. In general, Tmax refers to the time at which the peak concentration occurs. `CN(C)CC#Cc1cccc(-c2nc(C(=O)NCc3ccc4c(c3)OCO4)cc3c2[C@@H](CCO)N([S@+]([O-])C(C)(C)C)C3)c1` [compound 21, (R)-N-(Benzo[d][1,3]dioxol-5-ylmethyl)-2-((R)-tert-butylsulfinyl)-4-(3-(3-(dimethyl-amino)prop-1-yn-1-yl)phenyl)-3-(2-hydroxyethyl)-2,3-dihydro-1H-pyrrolo[3,4-c]pyridine-6-carboxamide] gave a fraction unbound at 6 h, 5 μM in data set [1] of 0.045. Moreover, the half-life at 10 μM in “Plasma stability” was > 4 h. The IC50 with HepG2 (setting [6]) worked out at 51.3 µM; in the data set on HepG2 (setting [7]), 52.5 µM; in the data set on HepG2 (setting [8]) it was 62.1 µM; in data set [3], 0.054 µM. Besides, the bioavailability in data set [2] stood at 48%. The AUC in data set [2] (setting [9]) worked out at 50.1 µM·h; in data set [2] (setting [12]), 24.3 µM·h. The values for the Cmax in data set [2] (setting [10]) and in data set [2] (setting [13]) were 19.8 µM and 11.8 µM, respectively. In addition, the half-life is 2.8 h in data set [2] (setting [11]) and 3.5 h in data set [2] (setting [14]). The time of peak concentration (Tmax) in data set [2] (setting [15]) stood at 0.25 h; in data set [2] (single oral dose), 1 h. Also, the “plasma concentrations quantifiable till” value in data set [2] (single intraperitoneal dose) and in data set [2] (single oral dose) was 24 h throughout. Besides, in data set [4], the half-life at 1 μM amounted to 3.9 min. Also, the concentration for half-maximal inhibition (IC50) at 48 h amounted to 63.7 µM in data set [5] (setting [16]), 44.7 µM in data set [5] (setting [17]) and 24.4 µM in data set [5] (setting [18]). Moreover, in “Cytotoxicity (Table 1)”, the Cytotoxicity is >10 µM.

Regarding `CN(C)CC#Cc1cccc(-c2nc(C(=O)N[C@@H]3CCN(Cc4ccccc4)C3)cc3c2[C@@H](CCO)N([S@+]([O-])C(C)(C)C)C3)c1` [compound 37, (R)-N-((R)-1-Benzylpyrrolidin-3-yl)-2-((R)-tert-butylsulfinyl)-4-(3-(3-(dimethylamino)prop-1-yn-1-yl)phenyl)-3-(2-hydroxyethyl)-2,3-dihydro-1H-pyrrolo[3,4-c]pyridine-6-carboxamide], in data set [1], the free fraction (fraction unbound) at 6 h, 5 μM is 0.081. The half-life at 10 μM in “Plasma stability” was > 4 h. Besides, the IC50 in the data set with HepG2 (setting [6]) worked out at 56.2 µM; in the data set with HepG2 (setting [7]), 54.2 µM; in the data set with HepG2 (setting [8]) it was 90.6 µM; in data set [3], 0.048 µM. Further, the bioavailability in data set [2] amounted to 47%. Also, the figures for the AUC in data set [2] (setting [9]) and in data set [2] (setting [12]) were 11.1 µM·h and 5.2 µM·h, respectively. Also, the Cmax was 6.8 µM in data set [2] (setting [10]) and 1.7 µM in data set [2] (setting [13]). Further, the half-life in data set [2] (setting [11]) was 6.3 h; in data set [2] (setting [14]) it was 4.3 h. Further, the Tmax in data set [2] (setting [15]) stood at 0.25 h; in data set [2] (single oral dose) it was 1 h. The “plasma concentrations quantifiable till” value in data set [2] (single intraperitoneal dose) and in data set [2] (single oral dose) was 24 h throughout. In data set [4], the half-life at 1 μM worked out at 1.3 min. In addition, the IC50 at 48 h was 64.2 µM in data set [5] (setting [16]), 54.1 µM in data set [5] (setting [17]) and 13.4 µM in data set [5] (setting [18]). Moreover, in “Cytotoxicity (Table 1)”, the Cytotoxicity is >10 µM.
